Experimental data as given in ChEMBL document CHEMBL1201862, “PubChem BioAssay data set” (2004).
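Tested at 5 concentrations; 48 h exposure; 96-well plates; endpoints linearly interpolated, else capped at highest concentration. The concentration for 50% growth inhibition is given as GI50.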 Active and inactive are the calls of the source. Cut-off read from the data, not from the text of the source: active = GI50 up to about 1.1 µM and inactive = higher.

Legend:
Assay in all cases: NCI tumour cell line growth inhibition, 48 h
Malme-3M = test system: Malme-3M
SK-MEL-5 = test system: SK-MEL-5
SNB-75 = test system: SNB-75
ACHN = test system: ACHN
SF-295 = test system: SF-295
NCI/ADR-RES = test system: NCI/ADR-RES
A498 = test system: A498
SF-268 = test system: SF-268
SN12C = test system: SN12C
SNB-19 = test system: SNB-19
MDA-N = test system: MDA-N
OVCAR-8 = test system: OVCAR-8
OVCAR-5 = test system: OVCAR-5
COLO 205 = test system: COLO 205
Hs-578T = test system: Hs-578T
SK-OV-3 = test system: SK-OV-3
HOP-62 = test system: HOP-62
UACC-62 = test system: UACC-62
DU-145 = test system: DU-145
SW-620 = test system: SW-620
CAKI-1 = test system: CAKI-1
OVCAR-3 = test system: OVCAR-3
LOX IMVI = test system: LOX IMVI
EKVX = test system: EKVX
HCT-116 = test system: HCT-116
MDA-MB-435 = test system: MDA-MB-435
M14 = test system: M14
NCI-H23 = test system: NCI-H23
NCI-H460 = test system: NCI-H460
RXF 393 = test system: RXF 393
A549 = test system: A549
MCF7 = test system: MCF7
786-0 = test system: 786-0
TK-10 = test system: TK-10
HCT-15 = test system: HCT-15
HT-29 = test system: HT-29
U-251 = test system: U-251
PC-3 = test system: PC-3
NCI-H522 = test system: NCI-H522
CCRF-CEM = test system: CCRF-CEM
IGROV-1 = test system: IGROV-1
K562 = test system: K562
OVCAR-4 = test system: OVCAR-4
UO-31 = test system: UO-31
T47D = test system: T47D
SK-MEL-28 = test system: SK-MEL-28
SK-MEL-2 = test system: SK-MEL-2
HCC 2998 = test system: HCC 2998
SR = test system: SR
RPMI-8226 = test system: RPMI-8226
SF-539 = test system: SF-539
HL-60 = test system: HL-60
KM12 = test system: KM12
NCI-H226 = test system: NCI-H226
MOLT-4 = test system: MOLT-4
MDA-MB-231 = test system: MDA-MB-231
HOP-92 = test system: HOP-92
UACC-257 = test system: UACC-257

For COc1cc2c(c(OC)c1OC)-c1ccc(OC)c(=O)cc1C(NC(=O)CCCCCNc1ccc(N=[N+]=[N-])cc1[N+](=O)[O-])CC2 (centres undefined), the GI50 (Malme-3M) was < 0.01 µM (active), the GI50 (SK-MEL-5) was < 0.01 µM (active) and the GI50 (SNB-75) was 0.246 µM (active). For the same molecule, the GI50 (ACHN) was 0.0271 µM (active), the GI50 (SF-295) was < 0.0118 µM (active) and the GI50 (NCI/ADR-RES) was 0.422 µM (active). For the same molecule, the GI50 (A498) was < 0.01 µM (active), the GI50 (SF-268) was < 0.01 µM (active) and the GI50 (SN12C) was < 0.01 µM (active). For the same molecule, the GI50 (SNB-19) was < 0.01 µM (active), the GI50 (MDA-N) was < 0.01 µM (active) and the GI50 (OVCAR-8) was < 0.01 µM (active). The GI50 (OVCAR-5) was < 0.01 µM (active), the GI50 (COLO 205) was < 0.01 µM (active) and the GI50 (Hs-578T) was < 0.01 µM (active). For the same molecule, the GI50 (SK-OV-3) was < 0.01 µM (active), the GI50 (HOP-62) was < 0.01 µM (active) and the GI50 (UACC-62) was < 0.01 µM (active). For the same molecule, the GI50 (DU-145) was < 0.01 µM (active), the GI50 (SW-620) was < 0.01 µM (active) and the GI50 (CAKI-1) was 0.299 µM (active). For the same molecule, the GI50 (OVCAR-3) was < 0.01 µM (active), the GI50 (LOX IMVI) was < 0.01 µM (active) and the GI50 (EKVX) was < 0.0136 µM (active). For the same molecule, the GI50 (HCT-116) was < 0.01 µM (active), the GI50 (MDA-MB-435) was < 0.01 µM (active) and the GI50 (M14) was < 0.01 µM (active). For the same molecule, the GI50 (NCI-H23) was < 0.01 µM (active), the GI50 (NCI-H460) was < 0.01 µM (active) and the GI50 (RXF 393) was < 0.01 µM (active). The GI50 (A549) was < 0.01 µM (active), the GI50 (MCF7) was < 0.01 µM (active) and the GI50 (786-0) was < 0.01 µM (active). For the same molecule, the GI50 (TK-10) was 0.0426 µM (active), the GI50 (HCT-15) was 0.0418 µM and the GI50 (HT-29) was < 0.01 µM (active). For the same molecule, the GI50 (U-251) was < 0.01 µM (active), the GI50 (PC-3) was < 0.01 µM (active) and the GI50 (NCI-H522) was < 0.01 µM (active). The GI50 (CCRF-CEM) was < 0.01 µM (active), the GI50 (IGROV-1) was < 0.01 µM (active) and the GI50 (K562) was < 0.01 µM (active). For the same molecule, the GI50 (OVCAR-4) was 1.56 µM (inactive), the GI50 (UO-31) was 1.47 µM (inactive) and the GI50 (T47D) was 20.5 µM (inactive). For the same molecule, the GI50 (SK-MEL-28) was < 0.01 µM (active), the GI50 (SK-MEL-2) was < 0.01 µM (active) and the GI50 (HCC 2998) was < 0.01 µM (active). The GI50 (SR) was < 0.01 µM (active), the GI50 (RPMI-8226) was < 0.01 µM (active) and the GI50 (SF-539) was < 0.01 µM (active). The GI50 (HL-60) was < 0.01 µM (active), the GI50 (KM12) was < 0.01 µM (active) and the GI50 (NCI-H226) was < 0.01 µM (active). The GI50 (MOLT-4) was < 0.01 µM (active) and the GI50 (MDA-MB-231) was < 0.01 µM (active).

O=C1C/C(=C\c2ccccc2)C(=O)c2ccccc2N1 was tested, and the GI50 (Malme-3M) was 17.5 µM (inactive), the GI50 (SK-MEL-5) was 20.3 µM (inactive) and the GI50 (ACHN) was 25.1 µM (inactive). The GI50 (SF-295) was 17.4 µM (inactive), the GI50 (NCI/ADR-RES) was 23.6 µM (inactive) and the GI50 (A498) was 18.8 µM (inactive). For the same molecule, the GI50 (SF-268) was 38.2 µM (inactive), the GI50 (SN12C) was 18.5 µM (inactive) and the GI50 (SNB-19) was 14.9 µM (inactive). For the same molecule, the GI50 (MDA-N) was 22.9 µM (inactive), the GI50 (OVCAR-8) was 18.8 µM (inactive) and the GI50 (OVCAR-5) was 20 µM (inactive). For the same molecule, the GI50 (COLO 205) was 20 µM (inactive), the GI50 (HOP-92) was 29.9 µM (inactive) and the GI50 (Hs-578T) was 60.1 µM (inactive). The GI50 (SK-OV-3) was 35.2 µM (inactive), the GI50 (HOP-62) was 27.5 µM (inactive) and the GI50 (UACC-62) was 19.2 µM (inactive). The GI50 (DU-145) was 32.5 µM (inactive), the GI50 (SW-620) was 19.5 µM (inactive) and the GI50 (CAKI-1) was 18.4 µM (inactive). For the same molecule, the GI50 (OVCAR-3) was 25 µM (inactive), the GI50 (LOX IMVI) was 20.6 µM (inactive) and the GI50 (EKVX) was 24.1 µM (inactive). The GI50 (HCT-116) was 14.7 µM (inactive), the GI50 (MDA-MB-435) was 23.3 µM (inactive) and the GI50 (M14) was 23.2 µM (inactive). For the same molecule, the GI50 (NCI-H23) was 24.7 µM (inactive), the GI50 (NCI-H460) was 29.3 µM (inactive) and the GI50 (RXF 393) was 19.6 µM (inactive). The GI50 (A549) was 25.5 µM (inactive), the GI50 (MCF7) was 81.7 µM (inactive) and the GI50 (786-0) was 19.5 µM (inactive). For the same molecule, the GI50 (TK-10) was 32.9 µM (inactive), the GI50 (HCT-15) was 24.7 µM and the GI50 (HT-29) was 18.4 µM (inactive). The GI50 (PC-3) was 23.9 µM (inactive), the GI50 (UACC-257) was 26.9 µM (inactive) and the GI50 (NCI-H522) was 22.9 µM (inactive). For the same molecule, the GI50 (CCRF-CEM) was 16.7 µM (inactive), the GI50 (IGROV-1) was 18.6 µM (inactive) and the GI50 (OVCAR-4) was 20 µM (inactive). For the same molecule, the GI50 (T47D) was 28.2 µM (inactive), the GI50 (SK-MEL-28) was 29.5 µM (inactive) and the GI50 (SK-MEL-2) was 28.5 µM (inactive). For the same molecule, the GI50 (HCC 2998) was 19 µM (inactive), the GI50 (SR) was 42.8 µM (inactive) and the GI50 (SF-539) was 20.2 µM (inactive). The GI50 (HL-60) was 20.8 µM (inactive), the GI50 (KM12) was 22.6 µM (inactive) and the GI50 (NCI-H226) was 24.3 µM (inactive). The GI50 (MOLT-4) was 45.5 µM (inactive) and the GI50 (MDA-MB-231) was 23.8 µM (inactive).
